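Assay format: 96-well plates, 48-hour exposure. The concentration for 50% growth inhibition is given as GI50.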 The source made the active and inactive calls. Cut-off read from the data, not from the text of the source: active = GI50 up to about 1.1 µM and inactive = higher.
What was measured:
Assay in all cases: NCI tumour cell line growth inhibition, 48 h
SN12C = test system: SN12C
SK-MEL-2 = test system: SK-MEL-2
Malme-3M = test system: Malme-3M
U-251 = test system: U-251
SW-620 = test system: SW-620
HL-60 = test system: HL-60
HCC 2998 = test system: HCC 2998
UO-31 = test system: UO-31
RXF 393 = test system: RXF 393
HT-29 = test system: HT-29
UACC-257 = test system: UACC-257
SK-OV-3 = test system: SK-OV-3
NCI-H460 = test system: NCI-H460
MDA-N = test system: MDA-N
RPMI-8226 = test system: RPMI-8226
MDA-MB-435 = test system: MDA-MB-435
SNB-19 = test system: SNB-19
SF-268 = test system: SF-268
DU-145 = test system: DU-145
DLD-1 = test system: DLD-1

SMILES	GI50 (SN12C)	GI50 (SK-MEL-2)	GI50 (Malme-3M)	GI50 (U-251)	GI50 (SW-620)	GI50 (HL-60)	GI50 (HCC 2998)	GI50 (UO-31)	GI50 (RXF 393)	GI50 (HT-29)	GI50 (UACC-257)	GI50 (SK-OV-3)	GI50 (NCI-H460)	GI50 (MDA-N)	GI50 (RPMI-8226)	GI50 (MDA-MB-435)	GI50 (SNB-19)	GI50 (SF-268)	GI50 (DU-145)	GI50 (DLD-1)
COc1cc(C2c3cc4c(cc3OC(C)(N3CCCC3)C2C)OCO4)cc(OC)c1OC (centres undefined)	0.446 µM (active)	0.405 µM (active)	0.343 µM (active)	0.385 µM (active)	0.153 µM (active)	0.182 µM (active)	0.389 µM (active)	1.26 µM (inactive)	0.256 µM (active)	0.293 µM (active)	0.437 µM (active)	0.391 µM (active)	0.473 µM (active)	0.154 µM (active)	0.337 µM (active)	0.128 µM (active)	0.391 µM (active)	0.714 µM (active)	0.327 µM (active)	–
O=C(c1ccc(Cl)cc1)N(C(=S)N1CCN(c2ccccc2)CC1)c1ccccc1	> 100 µM (inactive)	> 100 µM (inactive)	> 100 µM (inactive)	> 100 µM (inactive)	> 100 µM (inactive)	> 100 µM (inactive)	–	> 100 µM (inactive)	> 100 µM (inactive)	> 100 µM (inactive)	> 100 µM (inactive)	> 100 µM (inactive)	> 100 µM (inactive)	–	> 100 µM (inactive)	–	> 100 µM (inactive)	> 100 µM (inactive)	–	> 100 µM (inactive)
CCOP(=O)(OCC)c1c(C(=O)OC)cc(=O)[nH]c1-c1ccc(C)cc1	22.4 µM (inactive)	15.7 µM (inactive)	6.1 µM (inactive)	13.1 µM (inactive)	5.75 µM (inactive)	1.23 µM (inactive)	18.1 µM (inactive)	4.05 µM (inactive)	12.5 µM (inactive)	14.4 µM (inactive)	15.6 µM (inactive)	22.8 µM (inactive)	19.1 µM (inactive)	24.8 µM (inactive)	5.27 µM (inactive)	18.5 µM (inactive)	21.6 µM (inactive)	19.4 µM (inactive)	12.9 µM (inactive)	–
COc1cccc(C2c3cc4c(cc3OC(NNC(N)=O)C2C)OCO4)c1OC (centres undefined)	27 µM (inactive)	20.5 µM (inactive)	25.9 µM (inactive)	20 µM (inactive)	22.6 µM (inactive)	20.8 µM (inactive)	32 µM (inactive)	25.6 µM (inactive)	14.1 µM (inactive)	22.4 µM (inactive)	27.3 µM (inactive)	34.2 µM (inactive)	23.1 µM (inactive)	18 µM (inactive)	13 µM (inactive)	19.9 µM (inactive)	29.1 µM (inactive)	27.7 µM (inactive)	20.9 µM (inactive)	–
COc1cc(OC)c2c(=O)cc(-c3ccccc3F)[nH]c2c1	> 100 µM (inactive)	> 100 µM (inactive)	> 100 µM (inactive)	35.8 µM (inactive)	59.3 µM (inactive)	> 100 µM (inactive)	18.6 µM (inactive)	28.6 µM (inactive)	29.8 µM (inactive)	38.2 µM (inactive)	> 100 µM (inactive)	91.2 µM (inactive)	37.9 µM (inactive)	25.8 µM (inactive)	57.8 µM (inactive)	8.38 µM (inactive)	26 µM (inactive)	39.2 µM (inactive)	76.4 µM (inactive)	–
COC(=O)C(CCSC)NC(=O)CNC(=O)CSc1nnc(COc2ccc(Cl)cc2)n1-c1ccccc1 (centres undefined)	18.4 µM (inactive)	15.4 µM (inactive)	18 µM (inactive)	17.3 µM (inactive)	20.3 µM (inactive)	19.3 µM (inactive)	14 µM (inactive)	10.4 µM (inactive)	18.6 µM (inactive)	17.7 µM (inactive)	18.3 µM (inactive)	18.1 µM (inactive)	17.5 µM (inactive)	18.6 µM (inactive)	22.6 µM (inactive)	17.9 µM (inactive)	69.3 µM (inactive)	17.1 µM (inactive)	23 µM (inactive)	–
COc1cc(C2CC(C)(Nc3ccccc3)Oc3cc4c(cc32)OCO4)cc(OC)c1OC (centres undefined)	0.247 µM (active)	0.303 µM (active)	3.29 µM (inactive)	0.279 µM (active)	0.234 µM (active)	0.0906 µM (active)	0.729 µM (active)	1.2 µM (inactive)	0.222 µM (active)	0.182 µM (active)	2.2 µM (inactive)	0.394 µM (active)	0.327 µM (active)	0.0412 µM (active)	0.263 µM (active)	0.0172 µM (active)	0.736 µM (active)	4.58 µM (inactive)	0.352 µM (active)	–
CC(=O)NC(=N/N=C1/C(=O)Nc2ccc(C)cc21)NC(C)=O	> 100 µM (inactive)	> 100 µM (inactive)	> 100 µM (inactive)	> 100 µM (inactive)	> 100 µM (inactive)	> 100 µM (inactive)	> 100 µM (inactive)	84.1 µM (inactive)	68.1 µM (inactive)	> 100 µM (inactive)	> 100 µM (inactive)	> 100 µM (inactive)	> 100 µM (inactive)	> 100 µM (inactive)	> 100 µM (inactive)	> 100 µM (inactive)	> 100 µM (inactive)	> 100 µM (inactive)	> 100 µM (inactive)	–
Cc1cc(=O)oc2cc3oc(N(C)c4ccccc4)nc(=O)c3cc12	> 100 µM (inactive)	> 100 µM (inactive)	> 100 µM (inactive)	56 µM (inactive)	> 100 µM (inactive)	> 100 µM (inactive)	> 100 µM (inactive)	> 100 µM (inactive)	> 100 µM (inactive)	> 100 µM (inactive)	> 100 µM (inactive)	> 100 µM (inactive)	> 100 µM (inactive)	> 100 µM (inactive)	> 100 µM (inactive)	> 100 µM (inactive)	67.9 µM (inactive)	40.9 µM (inactive)	> 100 µM (inactive)	–
CN(C)c1ccc(-c2nc(-c3cc4c(ccc5ccccc54)oc3=O)cs2)cc1	> 100 µM (inactive)	> 100 µM (inactive)	> 100 µM (inactive)	> 100 µM (inactive)	> 100 µM (inactive)	> 100 µM (inactive)	> 100 µM (inactive)	> 100 µM (inactive)	> 100 µM (inactive)	> 100 µM (inactive)	> 100 µM (inactive)	> 100 µM (inactive)	> 100 µM (inactive)	> 100 µM (inactive)	> 100 µM (inactive)	> 100 µM (inactive)	> 100 µM (inactive)	> 100 µM (inactive)	> 100 µM (inactive)	–
COc1ccc(-n2c(SC(CN3CCOCC3)CN3CCCC3=O)nc3ccccc3c2=O)cc1 (centres undefined)	> 100 µM (inactive)	> 100 µM (inactive)	91.2 µM (inactive)	> 100 µM (inactive)	> 100 µM (inactive)	85.9 µM (inactive)	> 100 µM (inactive)	35.6 µM (inactive)	> 100 µM (inactive)	> 100 µM (inactive)	> 100 µM (inactive)	> 100 µM (inactive)	> 100 µM (inactive)	> 100 µM (inactive)	> 100 µM (inactive)	> 100 µM (inactive)	> 100 µM (inactive)	> 100 µM (inactive)	> 100 µM (inactive)	–
COC(=O)C1(C(C)C)CCc2c(OC)ccc(OC)c2C1=O (centres undefined)	> 100 µM (inactive)	> 100 µM (inactive)	> 100 µM (inactive)	> 100 µM (inactive)	> 100 µM (inactive)	> 100 µM (inactive)	> 100 µM (inactive)	> 100 µM (inactive)	–	> 100 µM (inactive)	> 100 µM (inactive)	> 100 µM (inactive)	> 100 µM (inactive)	–	93.3 µM (inactive)	–	> 100 µM (inactive)	> 100 µM (inactive)	–	> 100 µM (inactive)
O=C1C(Cl)=C(N2CCN(CCOCCO)CC2)C(=O)c2ccccc21	15.2 µM (inactive)	8.89 µM (inactive)	6.07 µM (inactive)	17.3 µM (inactive)	1.72 µM (inactive)	1.67 µM (inactive)	18.2 µM (inactive)	7.73 µM (inactive)	3.13 µM (inactive)	16 µM (inactive)	5.12 µM (inactive)	15.3 µM (inactive)	17.9 µM (inactive)	2.18 µM (inactive)	3.45 µM (inactive)	3.41 µM (inactive)	23.8 µM (inactive)	16.4 µM (inactive)	19.2 µM (inactive)	–
CSC1(C)CC2C(CC1N1CCCCC1)C2(C)C (centres undefined)	> 100 µM (inactive)	> 100 µM (inactive)	> 100 µM (inactive)	> 100 µM (inactive)	–	> 100 µM (inactive)	> 100 µM (inactive)	> 100 µM (inactive)	–	> 100 µM (inactive)	> 100 µM (inactive)	> 100 µM (inactive)	> 100 µM (inactive)	–	> 100 µM (inactive)	–	–	> 100 µM (inactive)	–	> 100 µM (inactive)
C[C@@H]1C(O)CC[C@H](C)C12CC=CC2=O (some centres undefined)	> 100 µM (inactive)	> 100 µM (inactive)	> 100 µM (inactive)	> 100 µM (inactive)	> 100 µM (inactive)	> 100 µM (inactive)	> 100 µM (inactive)	> 100 µM (inactive)	> 100 µM (inactive)	> 100 µM (inactive)	> 100 µM (inactive)	> 100 µM (inactive)	> 100 µM (inactive)	> 100 µM (inactive)	> 100 µM (inactive)	> 100 µM (inactive)	> 100 µM (inactive)	> 100 µM (inactive)	> 100 µM (inactive)	–
